Measurements reported in patent US7091202B2, “4-arylspirocycloalkyl-2-aminopyrimidine carboxamide KCNQ potassium channel modulators” (Bristol-Myers Squibb Company, priority 2004, dated 2006).

Molecular target: T1, hQ23 (HEK-293 cell line stably transfected with one of the members of the KCNQ family) (Homo sapiens, UniProt O43525+O43526)
T1 construct: expressed in transfected cells; host or cells: HEK-293, stably transfected
Assay: Thallium flux assay for KCNQ channel blockers (FLIPR, BTC dye)
Format: cell-based
Conditions: hQ23 cells, thallium flux
Method in brief: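 HEK-293 cells stably expressing a KCNQ member, loaded with BTC-AM (2 μM) in chloride-free buffer, pH 7.3; compounds added at 1% DMSO, then Tl2SO4 stimulus on FLIPR (488/540 nm, 60 s). Minimal active concentration set at ≥4 SD above negative control; IC50 from 10-point 1:3 series, single-site logistic fit versus the positive-control blocker.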

T1 sequence (O43526 whole entry): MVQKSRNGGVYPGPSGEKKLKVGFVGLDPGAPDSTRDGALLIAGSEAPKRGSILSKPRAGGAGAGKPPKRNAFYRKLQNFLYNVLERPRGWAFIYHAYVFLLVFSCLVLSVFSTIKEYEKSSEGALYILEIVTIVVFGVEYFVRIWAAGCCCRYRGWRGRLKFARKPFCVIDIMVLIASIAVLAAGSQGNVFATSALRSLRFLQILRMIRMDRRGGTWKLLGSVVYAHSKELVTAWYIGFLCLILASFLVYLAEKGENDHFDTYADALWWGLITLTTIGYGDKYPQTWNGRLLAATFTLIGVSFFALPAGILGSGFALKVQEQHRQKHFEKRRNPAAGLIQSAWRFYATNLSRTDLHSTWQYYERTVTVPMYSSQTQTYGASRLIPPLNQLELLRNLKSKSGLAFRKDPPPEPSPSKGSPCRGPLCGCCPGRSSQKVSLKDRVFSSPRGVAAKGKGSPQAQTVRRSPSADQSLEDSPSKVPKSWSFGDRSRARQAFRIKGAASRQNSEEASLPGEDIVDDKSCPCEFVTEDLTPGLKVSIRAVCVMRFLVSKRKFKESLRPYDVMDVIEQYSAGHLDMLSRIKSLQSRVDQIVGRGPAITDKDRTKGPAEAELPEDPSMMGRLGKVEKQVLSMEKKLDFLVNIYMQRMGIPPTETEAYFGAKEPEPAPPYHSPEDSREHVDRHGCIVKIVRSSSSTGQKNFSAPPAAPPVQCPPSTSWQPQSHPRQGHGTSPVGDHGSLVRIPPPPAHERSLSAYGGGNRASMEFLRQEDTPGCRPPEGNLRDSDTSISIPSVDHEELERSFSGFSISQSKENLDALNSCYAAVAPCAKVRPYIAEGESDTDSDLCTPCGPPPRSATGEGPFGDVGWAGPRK
T1 sequence (O43525 whole entry): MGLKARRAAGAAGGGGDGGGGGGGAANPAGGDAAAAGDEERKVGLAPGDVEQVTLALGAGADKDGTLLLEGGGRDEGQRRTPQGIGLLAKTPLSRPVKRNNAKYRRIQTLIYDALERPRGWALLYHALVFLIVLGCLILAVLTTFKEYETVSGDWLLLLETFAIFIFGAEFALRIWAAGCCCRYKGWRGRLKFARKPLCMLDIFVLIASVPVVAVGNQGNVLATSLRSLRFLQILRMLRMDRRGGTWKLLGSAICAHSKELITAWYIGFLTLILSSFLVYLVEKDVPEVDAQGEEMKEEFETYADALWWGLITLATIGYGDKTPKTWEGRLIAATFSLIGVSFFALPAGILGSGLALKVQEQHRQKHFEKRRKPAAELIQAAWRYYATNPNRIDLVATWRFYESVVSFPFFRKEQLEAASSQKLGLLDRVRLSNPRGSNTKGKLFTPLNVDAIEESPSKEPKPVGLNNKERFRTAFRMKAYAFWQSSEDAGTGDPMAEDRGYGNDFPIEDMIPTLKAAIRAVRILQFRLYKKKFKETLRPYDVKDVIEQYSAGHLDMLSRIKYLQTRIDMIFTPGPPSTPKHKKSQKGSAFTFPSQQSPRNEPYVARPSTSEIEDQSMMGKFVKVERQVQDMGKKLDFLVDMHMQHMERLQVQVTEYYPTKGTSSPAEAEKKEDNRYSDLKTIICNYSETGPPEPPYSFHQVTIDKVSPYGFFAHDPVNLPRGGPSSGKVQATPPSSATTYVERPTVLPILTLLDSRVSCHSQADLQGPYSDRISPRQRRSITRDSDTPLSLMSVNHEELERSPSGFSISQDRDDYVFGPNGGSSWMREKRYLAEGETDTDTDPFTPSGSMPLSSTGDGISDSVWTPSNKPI

EC50 [nM]	SMILES
875	O=C(NCc1cc(F)cc(C(F)(F)F)c1)c1cnc(NC2CCCC2)nc1C1(c2ccccc2)CCCC1 [Example 130, 5-pyrimidinecarboxamide, 2-(cyclopentylamino)-N-[[3-fluoro-5-(trifluoromethyl)phenyl]methyl]-4-(1-phenylcyclopentyl)-]
413	CC(NC(=O)c1cnc(NC2CCCC2)nc1C1(c2ccccc2)CCCC1)c1ccc(F)cc1 (centres unmarked) [Example 136, 5-pyrimidinecarboxamide, 2-(cyclopentylamino)-N-[1-(4-fluorophenyl)ethyl]-4-(1-phenylcyclopentyl)-]
246	CC1CCN(c2ncc(C(=O)N(C)Cc3ccccc3)c(C3(c4ccc(Cl)cc4)CCCC3)n2)CC1 [Example 140, 5-pyrimidinecarboxamide, 4-[1-(4-chlorophenyl)cyclopentyl]-N-methyl-2-(4-methyl-1-piperidinyl)-N-(phenylmethyl)-]
183	CN(Cc1ccccc1)C(=O)c1cnc(NC2CCCC2)nc1C1(c2ccc(Cl)cc2)CCCC1 [Example 141, 5-pyrimidinecarboxamide, 4-[1-(4-chlorophenyl)cyclopentyl]-2-(cyclopentylamino)-N-methyl-N-(phenylmethyl)-]
535	O=C(c1cnc(NC2CCCC2)nc1C1(c2ccc(Cl)cc2)CCCC1)N1CCc2ccccc2C1 [Example 142, isoquinoline, 2-[[4-[1-(4-chlorophenyl)cyclopentyl]-2-(cyclopentylamino)-5-pyrimidinyl]carbonyl]-1,2,3,4-tetrahydro-]
884	CC1CCCN(C(=O)c2cnc(NC3CC3)nc2C2(c3ccc(Cl)cc3)CCCC2)C1 (centres unmarked) [Example 144, piperidine, 1-[[4-[1-(4-chlorophenyl)cyclopentyl]-2-(cyclopropylamino)-5-pyrimidinyl]carbonyl]-3-methyl-]
895	CN(CCc1ccccc1)C(=O)c1cnc(NC2CC2)nc1C1(c2ccc(Cl)cc2)CCCC1 [Example 145, 5-pyrimidinecarboxamide, 4-[1-(4-chlorophenyl)cyclopentyl]-2-(cyclopropylamino)-N-methyl-N-(2-phenylethyl)-]
664	CC1CCC(Nc2ncc(C(=O)N(C)CCc3ccccc3)c(C3(c4ccc(Cl)cc4)CCCC3)n2)CC1 (centres unmarked) [Example 146, 5-pyrimidinecarboxamide, 4-[1-(4-chlorophenyl)cyclopentyl]-N-methyl-2-[(4-methylcyclohexyl)amino]-N-(2-phenylethyl)-]
597	CN(CCc1ccccc1)C(=O)c1cnc(NC2CCCC2)nc1C1(c2ccc(Cl)cc2)CCCC1 [Example 148, 5-pyrimidinecarboxamide, 4-[1-(4-chlorophenyl)cyclopentyl]-2-(cyclopentylamino)-N-methyl-N-(2-phenylethyl)-]
525	CCN(Cc1ccccc1)C(=O)c1cnc(NC2CCCC2)nc1C1(c2ccc(Cl)cc2)CCCC1 [Example 149, 5-pyrimidinecarboxamide, 4-[1-(4-chlorophenyl)cyclopentyl]-2-(cyclopentylamino)-N-ethyl-N-(phenylmethyl)-]
717	O=C(NCc1ccc2c(c1)OCO2)c1cnc(NC2CC2)nc1C1(c2ccc(Cl)cc2)CCCC1 [Example 150, 5-pyrimidinecarboxamide, N-(1,3-benzodioxol-5-ylmethyl)-4-[1-(4-chlorophenyl)cyclopentyl]-2-(cyclopropylamino)-]
119	CC1CCC(Nc2ncc(C(=O)NCc3ccc4c(c3)OCO4)c(C3(c4ccc(Cl)cc4)CCCC3)n2)CC1 (centres unmarked) [Example 151, 5-pyrimidinecarboxamide, N-(1,3-benzodioxol-5-ylmethyl)-4-[1-(4-chlorophenyl)cyclopentyl]-2-[(4-methylcyclohexyl)amino]-]
70	O=C(NCc1ccc2c(c1)OCO2)c1cnc(NC2CCCC2)nc1C1(c2ccc(Cl)cc2)CCCC1 [Example 156, 5-pyrimidinecarboxamide, N-(1,3-benzodioxol-5-ylmethyl)-4-[1-(4-chlorophenyl)cyclopentyl]-2-(cyclopentylamino)-]
195	CC(NC(=O)c1cnc(NC2CC2)nc1C1(c2ccc(Cl)cc2)CCCC1)c1cccc2ccccc12 (centres unmarked) [Example 157, 5-pyrimidinecarboxamide, 4-[1-(4-chlorophenyl)cyclopentyl]-2-(cyclopropylamino)-N-[1-(1-naphthalenyl)ethyl]-]

The next lines start with the compound.

SMILES	EC50 [nM]
CC1CCC(Nc2ncc(C(=O)NC(C)c3ccc(F)cc3)c(C3(c4ccccc4)CCCC3)n2)CC1 (centres unmarked) [Example 131, 5-pyrimidinecarboxamide, N-[1-(4-fluorophenyl)ethyl]-2-[(4-methylcyclohexyl)amino]-4-(1-phenylcyclopentyl)-]	158
CC(NC(=O)c1cnc(N2CCCC2)nc1C1(c2ccccc2)CCCC1)c1ccc(F)cc1 (centres unmarked) [Example 132, 5-pyrimidinecarboxamide, N-[1-(4-fluorophenyl)ethyl]-4-(1-phenylcyclopentyl)-2-(1-pyrrolidinyl)-]	195
CC(NC(=O)c1cnc(N2CCN(C)CC2)nc1C1(c2ccccc2)CCCC1)c1ccc(F)cc1 (centres unmarked) [Example 133, 5-pyrimidinecarboxamide, N-[1-(4-fluorophenyl)ethyl]-2-(4-methyl-1-piperazinyl)-4-(1-phenylcyclopentyl)-]	442
CC1CCN(c2ncc(C(=O)NC(C)c3ccc(F)cc3)c(C3(c4ccccc4)CCCC3)n2)CC1 (centres unmarked) [Example 134, 5-pyrimidinecarboxamide, N-[1-(4-fluorophenyl)ethyl]-2-(4-methyl-1-piperidinyl)-4-(1-phenylcyclopentyl)-]	98
CCC(C)Nc1ncc(C(=O)NC(C)c2ccc(F)cc2)c(C2(c3ccccc3)CCCC2)n1 (centres unmarked) [Example 135, 5-pyrimidinecarboxamide, N-[1-(4-fluorophenyl)ethyl]-2-[(1-methylpropyl)amino]-4-(1-phenylcyclopentyl)-]	29
CC1CCC(Nc2ncc(C(=O)NCc3ccc(C(F)(F)F)cc3)c(C3(c4ccccc4)CCCC3)n2)CC1 (centres unmarked) [Example 137, 5-pyrimidinecarboxamide, 2-[(4-methylcyclohexyl)amino]-4-(1-phenylcyclopentyl)-N-[[4-(trifluoromethyl)phenyl]methyl]-]	964
CN1CCN(c2ncc(C(=O)N(C)Cc3ccccc3)c(C3(c4ccc(Cl)cc4)CCCC3)n2)CC1 [Example 139, 5-pyrimidinecarboxamide, 4-[1-(4-chlorophenyl)cyclopentyl]-N-methyl-2-(4-methyl-1-piperazinyl)-N-(phenylmethyl)-]	70
CCC(C)Nc1ncc(C(=O)N(CC)C2CCCCC2)c(C2(c3ccc(Cl)cc3)CCCC2)n1 (centres unmarked) [Example 143, 5-pyrimidinecarboxamide, 4-[1-(4-chlorophenyl)cyclopentyl]-N-cyclohexyl-N-ethyl-2-[(1-methylpropyl)amino]-]	880
CN(CCc1ccccc1)C(=O)c1cnc(N2CCCC2)nc1C1(c2ccc(Cl)cc2)CCCC1 [Example 147, 5-pyrimidinecarboxamide, 4-[1-(4-chlorophenyl)cyclopentyl]-N-methyl-N-(2-phenylethyl)-2-(1-pyrrolidinyl)-]	169
O=C(NCc1ccc2c(c1)OCO2)c1cnc(N2CCCC2)nc1C1(c2ccc(Cl)cc2)CCCC1 [Example 152, 5-pyrimidinecarboxamide, N-(1,3-benzodioxol-5-ylmethyl)-4-[1-(4-chlorophenyl)cyclopentyl]-2-(1-pyrrolidinyl)-]	107
CC1CCCN(c2ncc(C(=O)NCc3ccc4c(c3)OCO4)c(C3(c4ccc(Cl)cc4)CCCC3)n2)C1 (centres unmarked) [Example 153, 5-pyrimidinecarboxamide, N-(1,3-benzodioxol-5-ylmethyl)-4-[1-(4-chlorophenyl)cyclopentyl]-2-(3-methyl-1-piperidinyl)-]	10
CC1CCN(c2ncc(C(=O)NCc3ccc4c(c3)OCO4)c(C3(c4ccc(Cl)cc4)CCCC3)n2)CC1 [Example 154, 5-pyrimidinecarboxamide, N-(1,3-benzodioxol-5-ylmethyl)-4-[1-(4-chlorophenyl)cyclopentyl]-2-(4-methyl-1-piperidinyl)-]	10
CCC(C)Nc1ncc(C(=O)NCc2ccc3c(c2)OCO3)c(C2(c3ccc(Cl)cc3)CCCC2)n1 (centres unmarked) [Example 155, 5-pyrimidinecarboxamide, N-(1,3-benzodioxol-5-ylmethyl)-4-[1-(4-chlorophenyl)cyclopentyl]-2-[(1-methylpropyl)amino]-]	337
CC(NC(=O)c1cnc(N2CCCC2)nc1C1(c2ccc(Cl)cc2)CCCC1)c1cccc2ccccc12 (centres unmarked) [Example 158, 5-pyrimidinecarboxamide, 4-[1-(4-chlorophenyl)cyclopentyl]-N-[1-(1-naphthalenyl)ethyl]-2-(1-pyrrolidinyl)-]	40
CC(NC(=O)c1cnc(N2CCN(C)CC2)nc1C1(c2ccc(Cl)cc2)CCCC1)c1cccc2ccccc12 (centres unmarked) [Example 159, 5-pyrimidinecarboxamide, 4-[1-(4-chlorophenyl)cyclopentyl]-2-(4-methyl-1-piperazinyl)-N-[1-(1-naphthalenyl)ethyl]-]	643
CC1CCCN(c2ncc(C(=O)NC(C)c3cccc4ccccc34)c(C3(c4ccc(Cl)cc4)CCCC3)n2)C1 (centres unmarked) [Example 160, 5-pyrimidinecarboxamide, 4-[1-(4-chlorophenyl)cyclopentyl]-2-(3-methyl-1-piperidinyl)-N-[1-(1-naphthalenyl)ethyl]-]	30
CC1CCN(c2ncc(C(=O)NC(C)c3cccc4ccccc34)c(C3(c4ccc(Cl)cc4)CCCC3)n2)CC1 (centres unmarked) [Example 161, 5-pyrimidinecarboxamide, 4-[1-(4-chlorophenyl)cyclopentyl]-2-(4-methyl-1-piperidinyl)-N-[1-(1-naphthalenyl)ethyl]-]	10
CCC(C)Nc1ncc(C(=O)NC(C)c2cccc3ccccc23)c(C2(c3ccc(Cl)cc3)CCCC2)n1 (centres unmarked) [Example 162, 5-pyrimidinecarboxamide, 4-[1-(4-chlorophenyl)cyclopentyl]-2-[(1-methylpropyl)amino]-N-[1-(1-naphthalenyl)ethyl]-]	113
